Reference: patent publication US20240101552A1, “CARBONYL HETEROCYCLIC COMPOUND AND APPLICATION THEREOF” (SHANGHAI PHARMACEUTICALS HOLDING CO., LTD., priority 2020, published 2024)
pKd: −log10 of the molar value. Entries after “also recorded” stand apart in the source; their conditions may differ.

Assays:
LANCL2 = LANCL2 (Homo sapiens (Human), UniProt Q9NS86); assay: SPR (BIACORE S200) kinetic determination of LANCL2-small molecule interactions; assay type: binding; settings: for pKd: immobilized LANCL2, 1:1 binding model, pH 6.5, 25° C.; for Rmax (RU): maximum binding force
Sequence of LANCL2 (Q9NS86 whole entry, species assumed): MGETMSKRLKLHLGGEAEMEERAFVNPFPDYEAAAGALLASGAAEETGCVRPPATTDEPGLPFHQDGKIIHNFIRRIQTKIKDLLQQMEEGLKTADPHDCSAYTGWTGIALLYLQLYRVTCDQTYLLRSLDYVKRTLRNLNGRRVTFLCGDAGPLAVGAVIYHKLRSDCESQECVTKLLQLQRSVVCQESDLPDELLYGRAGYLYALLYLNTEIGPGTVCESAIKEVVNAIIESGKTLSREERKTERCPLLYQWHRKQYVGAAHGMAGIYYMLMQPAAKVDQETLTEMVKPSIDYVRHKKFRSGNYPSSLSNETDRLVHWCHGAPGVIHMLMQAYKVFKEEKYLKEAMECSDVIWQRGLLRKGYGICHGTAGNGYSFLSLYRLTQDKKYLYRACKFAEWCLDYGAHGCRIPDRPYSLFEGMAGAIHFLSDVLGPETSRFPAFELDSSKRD
Procedure: 1.1 Reagent Materials • Ligand: LANCL2 • Running buffer: 20 mM MES, 150 mM NaCl, 0.05% P20, pH 6.5, 1% DMSO
Injection conditions for small molecule compounds: a flow rate of 30 μL/min, a binding time of 60 s, a dissociation time of 300 s.
Running buffer: 20 mM MES, 150 mM NaCl, 0.05% P20, pH 6.5, 1% DMSO.
Sample chamber temperature: 25° C.; analysis temperature: 25° C.
Kinetic determination of LANCL2-small molecule interactions was performed. The kinetic parameters of small molecules BT-11 and L-1 to 60 (analytes) binding to LANCL2 (ligand) were determined using BIACORE S200. Data were generated in triplicate in a dose-dependent manner (5-8 titration points) and analyzed to determine binding models (Langmuir, conformational shifts, etc.), real-time association and dissociation constants, and equilibrium dissociation constants. SPR technology allows the validation of specific LANCL2-phytochemical interactions as well as an increased insight into the gold standard of binding mechanisms and rates. Experiments were performed on carboxymethyl polydextrose (CM5) sensor chips by amine-coupled covalent attachment of LANCL2. Data were analyzed with BIACORE S200T200 evaluation software (version 1), so as to determine affinity binding constants (KD) using a 1:1 binding model.
An optical technique for detecting molecular interactions, SPR, was used to measure the binding affinity between LANCL2 and a ligand thereof (compound to be tested). Purified recombinant LANCL2 protein was immobilized on a BIACORE sensor chip and small molecules were injected onto the protein surface using an equipment of microfluidic system. The change in total mass on the chip surface, corresponding to a small binding to the protein, was measured. […] The equilibrium dissociation constant (Kd) was often used to describe the affinity between a ligand and a protein, such as affinity degree of a ligand binding to a specific protein. Ligand-protein affinity was affected by non-covalent intermolecular interactions between two molecules, such as hydrogen bonding, electrostatic interactions, hydrophobic bonds and van der Waals forces. The steady-state affinity (Kd) for each interaction could be measured by plotting equilibrium binding levels against compound concentrations.

[1] = test system: TNBS-induced colitis in mice; assay: Alleviating effect on TNBS-induced colitis in mice, study (II); assay type: in vivo, Balb/c mice; settings: for colon weight (FIG. 18B) / weight-to-length ratio of colon (FIG. 18C): L compounds PO 50 mpk BID, Mesalazine PO 100 mpk QD
Procedure: (§1) Sixty female Balb/c mice, weighing about 18 g and 8-10 weeks old, were randomly divided into twelve groups, including eleven model groups and one Sham control group. The administration was started on Day 1 and ended on Day 7, with the compounds prepared once a day, as detailed in Table 1 for route and frequency of administration, and Table 2 for compound preparation and volume of administration.
(§2) Balb/c mice weighing about 18-20 g were anesthetized with 0.25 mL of 1.25% Avertin on Day 0. The mice in the model group were perfused rectally with 150 μL of 1% TNBS solution (ethanol with a final concentration of 50%). The mice in the Sham control group were perfused rectally with 50% ethanol on Day 0.
(§3) The mouse colon was photographed, measured for the length, and weighed after the contents were removed. The colon of each mouse was then cut longitudinally at ½, rolled in a uniform direction by Swiss-roll method and fixed in neutral paraformaldehyde.
(§4) The DAI scoring consisted of 3 parts, taking the method of mixed scoring of weight change, stool and blood in stool, and the specific DAI scoring criteria were shown in Table 3. Throughout the experiment, the DAI scoring of all mice was done by the same person to ensure the scale consistency of the scoring.
The experimental data were statistically analyzed by ANOVA method, and data of other groups and the Vehicle (PO, QD) group were analyzed by Dunnett's test to compare data of multiple groups, *p<0.05, **p<0.01, ***p<0.005, ****p<0.0001

[2] = Solubility remark in the LANCL2 binding table (footnote a); assay type: physicochemical; set-up: key: ª: “a” indicated poor solubility
[3] = test system: TNBS-induced colitis in mice; assay: Alleviating effect on TNBS-induced enteritis (colitis) in mice, study (I); assay type: in vivo, Balb/c mice; settings: vs Vehicle group, Mesalamine PO 100 mpk QD
Procedure: Preparation method of L56: an appropriate amount of L56 compound was weighed into a brown sample vial, added with a certain volume of solvent 95% (20% HP-β-CD)+5% (10% sodium benzoate), the mixture was vortexed for 1 minute, and dissolved ultrasonically. The compound was prepared once a day.
Preparation method of L30: an appropriate amount of L30 compound was weighed into a brown sample vial, added with a certain volume of solvent 95% (20% HP-β-CD)+5% (10% sodium benzoate), the mixture was vortexed for 1 minute, and dissolved ultrasonically. The compound was prepared once a day.
Preparation method of Mesa (Mesalamine): an appropriate amount of Mesalamine (Selleck) was weighed into a brown sample vial, added with a certain volume of solvent 0.5% CMC-Na, the mixture was vortexed for 1 minute, and dissolved ultrasonically. The compound was prepared once a day.
as §1, with “Fifty-six” for “Sixty”, “seven” for “twelve”, “six” for “eleven”
as §2, §3, §4
The histopathological scoring was performed by a professional pathologist on the clinical pathology platform in a double-blind manner.
The experimental data were statistically analyzed by ANOVA method, positive drug Mesalamine (PO, 100 mpk, QD) group, L56 (PO, 50 mpk, BID) group, L30 (PO, 50 mpk, BID) group, *p<0.05, **p<0.01, ***p<0.005, ****p<0.0001

[4] = vs Vehicle group, PO, 50 mpk, BID

SMILES: O=C(c1cccc(-c2nc3ccccc3[nH]2)n1)N1CCN(C(=O)c2cccc(-c3nc4ccccc4[nH]3)n2)CC1 [BT-11, reference compound]
- pKd (LANCL2): 5.35
- Rmax (RU) (LANCL2): 3.6 RU
- weight loss of the mice (FIG. 16A) [1, 4]: not significantly slowed down

SMILES: O=C(NC1C2CN(C(=O)c3cccc(-c4nc5ccccc5[nH]4)n3)CC21)c1cccc(-c2nc3ccccc3[nH]2)n1 [Embodiment L-11, N-(3-(6-(1H-benzo[d]imidazol-2-yl)picolinoyl)-3-azabicyclo[3.1.0]hexan-6-yl)-6-(1H-benzo[d]imidazol-2-yl)pyridinecarboxamide]
- binding activity compared with positive reference compound BT-11 (LANCL2): better binding activities than the positive reference compound BT-11
- pKd (LANCL2): 5.44
- Rmax (RU) (LANCL2): 4.2 RU
- alleviation of TNBS-induced colitis / inflammation (conclusion) ([1]; PO, 50 mpk, BID): could significantly alleviate the occurrence of inflammation in mice with TNBS-induced colitis; also recorded: could effectively alleviate TNBS-induced colitis in mice
- alleviation of symptoms of diarrhea and blood in stool ([1]; PO, 50 mpk, BID): could effectively alleviate the symptoms of diarrhea and blood in stool in TNBS model mice
- alleviation of weight loss caused by TNBS-induced colitis (body weight changes and DAI scores combined) ([1]; PO, 50 mpk, BID): could effectively alleviate the weight loss in mice caused by TNBS-induced colitis
- colon weight (FIG. 18B) ([1]; vs Vehicle group): less colon weight
- weight-to-length ratio of colon (FIG. 18C) ([1]; vs Vehicle group): significantly lower
- DAI scores (FIG. 16B) [1, 4]: significantly lower
- blood in stool score (FIG. 17B) [1, 4]: significantly slowed down
- colon length (FIG. 18A) [1, 4]: significantly more colon length
- diarrhea score (FIG. 17A) [1, 4]: significantly slowed down
- weight loss of the mice (FIG. 16A) [1, 4]: significantly slowed down

SMILES: O=C(c1cccc(-c2cn3ccccc3n2)c1)N1CCN(C(=O)c2cccc(-c3cn4ccccc4n3)c2)CC1 [Embodiment L-36, Piperazine-1,4-diylbis((3-(imidazol[1,2-a]pyridin-2-yl)phenyl)methanone)]
- solubility (footnote a) [2]: ª

SMILES: O=C1CCC(C(=O)N2CC3CN(C(=O)c4cccc(-c5nc6ccccc6[nH]5)n4)CC3C2)=NN1 [Embodiment L-121, 6-(5-(6-(1Hbenzo[d]imidazol-2-yl)picolinoyl)octahydropyrrolo[3,4-c]pyrrole-2-carbonyl)-4,5-dihydropyridazin-3(2H)-one]
- pKd (LANCL2): 4.68
- Rmax (RU) (LANCL2): 2.3 RU

SMILES: O=C(c1cnc2ccccc2c1)N1CC2CN(C(=O)c3cccc(-c4nc5ccccc5[nH]4)n3)CC2C1 [Embodiment L-122, (5-(6-(1Hbenzo[d]imidazol-2-yl)picolinoyl)hexahydropyrrolo[3,4-c]pyrrol-2(1H)-yl)(quinolin-3-yl)methanone]
- pKd (LANCL2): 4.99
- Rmax (RU) (LANCL2): 7 RU

SMILES: Cc1ccncc1C(=O)N1CC2CN(C(=O)c3cccc(-c4nc5ccccc5[nH]4)n3)CC2C1 [Embodiment L-123, (5-(6-(1Hbenzo[d]imidazol-2-yl)picolinoyl)hexahydropyrrolo[3,4-c]pyrrol-2(1H)-yl)(4-methylpyridin-3-yl)methanone]
- pKd (LANCL2): 4.74
- Rmax (RU) (LANCL2): 3.9 RU

SMILES: O=C(c1ccc(F)c(Cl)c1)N1CC2CN(C(=O)c3cccc(-c4nc5ccccc5[nH]4)n3)CC2C1 [Embodiment L-124, (5-(6-(1Hbenzo[d]imidazol-2-yl)picolinoyl)hexahydropyrrolo[3,4-c]pyrrol-2(1H)-yl)(3-chloro-4-fluorophenyl)methanone]
- pKd (LANCL2): 5.06
- Rmax (RU) (LANCL2): 4.8 RU

SMILES: Cc1ccc2cc(C(=O)N3CC4CN(C(=O)c5cccc(-c6nc7ccccc7[nH]6)n5)CC4C3)ccc2n1 [Embodiment L-125, (5-(6-(1Hbenzo[d]imidazol-2-yl)picolinoyl)hexahydropyrrolo[3,4-c]pyrrol-2(1H)-yl)(2-methylquinolin-6-yl)methanone]
- pKd (LANCL2): 4.63
- Rmax (RU) (LANCL2): 5.2 RU

SMILES: O=C(c1cccc(-c2nc3ccccc3[nH]2)n1)N1CC2CN(C(=O)C3CCC(c4ccc(Cl)cc4)CC3)CC2C1 [Embodiment L-126, (5-(6-(1Hbenzo[d]imidazol-2-yl)picolinoyl)hexahydropyrrolo[3,4-c]pyrrol-2(1H)-yl)(4-(4-chlorophenyl)cyclohexyl)methanone]
- pKd (LANCL2): 4.39
- Rmax (RU) (LANCL2): 3.3 RU

SMILES: O=C(c1ccc(-c2ccccc2)cc1)N1CC2CN(C(=O)c3cccc(-c4nc5ccccc5[nH]4)n3)CC2C1 [Embodiment L-127, (5-(6-(1Hbenzo[d]imidazol-2-yl)picolinoyl)hexahydropyrrolo[3,4-c]pyrrol-2(1H)-yl)([1,1′-biphenyl]-4-yl)methanone]
- pKd (LANCL2): 5.03
- Rmax (RU) (LANCL2): 5.1 RU

SMILES: Nc1ccc(O)c(C(=O)O)c1 [Mesalamine]
- colon tissue pathological scores (HE staining) ([3]; L56 PO 50 mpk BID): lower colon tissue pathological scores with a statistically significant difference
- DAI scores (FIG. 13B) ([3]; L compounds PO 50 mpk BID): significantly lower
- colon length (FIG. 14B) ([3]; L compounds PO 50 mpk BID): significantly more colon length
- colon weight (FIG. 14C) ([3]; L compounds PO 50 mpk BID): less colon weight
- weight loss of the mice (FIG. 13A) ([3]; L compounds PO 50 mpk BID): significantly slowed down
- weight-to-length ratio of colon (FIG. 14A) ([3]; L compounds PO 50 mpk BID): significantly lower
- colon weight (FIG. 18B) ([1]; vs Vehicle group): less colon weight
- weight-to-length ratio of colon (FIG. 18C) ([1]; vs Vehicle group): significantly lower
